# According to ChEMBL document CHEMBL6087426, “Design, synthesis and bioactivity evaluation of cinnamic acid derivatives as potential anti-inflammatory agents against LPS-induced acute lung injury” (Bioorg Med Chem Lett, 2025):
# Activity calls are given as the source filed them. The calls are words filed in the database; no cut-off is given here.
# Columns and labels:
# [1] = tested on: J774.A1; assay: Anti-inflammatory activity against mouse J774.A1 cells assessed as inhibition of LPS-induced IL-6 production at 10 uM preincubated for 30 mins followed by LPS stimulation for 24 hrs by ELISA relative to control; assay type: functional; conditions: time 24.5 hrs
# [2] = tested on: J774.A1; assay: Cytotoxicity against mouse J774.A1 cells assessed as cell survival at 10 uM by MTT assay; assay type: toxicity, cell-based; conditions: j774.a1, 10 µM
# [3] = tested on: Mus musculus; assay: Anti-inflammatory activity in C57BL/6 mouse assessed as decrease in LPS-induced macrophage infiltration in lung tissue at 20 mg/kg pretreated for 30 mins followed by LPS stimulation for 6 hrs by IHC analysis; assay type: functional, organism-based; conditions: time 6.5 hrs
# [4] = tested on: Mus musculus; assay: Anti-inflammatory activity in C57BL/6 mouse assessed as decrease in LPS-induced wet to dry ratio in lung tissue at 20 mg/kg pretreated for 30 mins followed by LPS stimulation for 6 hrs; assay type: functional, organism-based; conditions: time 6.5 hrs
# [5] = tested on: Mus musculus; assay: Anti-inflammatory activity in C57BL/6 mouse assessed as decrease in LPS-induced TNF-alpha level in serum at 20 mg/kg pretreated for 30 mins followed by LPS stimulation for 6 hrs by ELISA; assay type: functional, organism-based; conditions: time 6.5 hrs
# [6] = tested on: Mus musculus; assay: Anti-inflammatory activity in C57BL/6 mouse assessed as decrease in LPS-induced IL-6 level in BALF at 20 mg/kg pretreated for 30 mins followed by LPS stimulation for 6 hrs by ELISA; assay type: functional, organism-based; conditions: time 6.5 hrs
# [7] = tested on: Mus musculus; assay: Anti-inflammatory activity in C57BL/6 mouse assessed as decrease in LPS-induced TNF-alpha level in BALF at 20 mg/kg pretreated for 30 mins followed by LPS stimulation for 6 hrs by ELISA; assay type: functional, organism-based; conditions: time 6.5 hrs
# [8] = tested on: Mus musculus; assay: Anti-inflammatory activity in C57BL/6 mouse assessed as decrease in LPS-induced IL-6 level in serum at 20 mg/kg pretreated for 30 mins followed by LPS stimulation for 6 hrs by ELISA; assay type: functional, organism-based; conditions: time 6.5 hrs
# [9] = tested on: Mus musculus; assay: Anti-inflammatory activity in C57BL/6 mouse assessed as decrease in LPS-induced total protein level in BALF at 20 mg/kg pretreated for 30 mins followed by LPS stimulation for 6 hrs; assay type: functional, organism-based; conditions: time 6.5 hrs
# [10] = tested on: Mus musculus; assay: Anti-inflammatory activity in C57BL/6 mouse assessed as decrease in LPS-induced interstitial edema in lung tissue at 20 mg/kg pretreated for 30 mins followed by LPS stimulation for 6 hrs by H and E staining based analysis; assay type: functional, organism-based; conditions: time 6.5 hrs
# [11] = tested on: J774.A1; assay: Anti-inflammatory activity against mouse J774.A1 cells assessed as inhibition of LPS-induced IL-6 production preincubated for 30 mins followed by LPS stimulation for 24 hrs by ELISA; assay type: functional, cell-based
# [12] = tested on: Mus musculus; assay: Anti-inflammatory activity in C57BL/6 mouse assessed as decrease in LPS-induced thickened alveolar septa in lung tissue at 20 mg/kg pretreated for 30 mins followed by LPS stimulation for 6 hrs by H and E staining based analysis; assay type: functional, organism-based; conditions: time 6.5 hrs
# [13] = tested on: Mus musculus; assay: Anti-inflammatory activity in C57BL/6 mouse assessed as decrease in LPS-induced pulmonary congestion in lung tissue at 20 mg/kg pretreated for 30 mins followed by LPS stimulation for 6 hrs by H and E staining based analysis; assay type: functional, organism-based; conditions: time 6.5 hrs
# [14] = tested on: Mus musculus; assay: Anti-inflammatory activity in C57BL/6 mouse assessed as decrease in LPS-induced destruction in lung tissue at 20 mg/kg pretreated for 30 mins followed by LPS stimulation for 6 hrs by H and E staining based analysis; assay type: functional, organism-based; conditions: time 6.5 hrs
# [15] = tested on: Mus musculus; assay: Anti-inflammatory activity in C57BL/6 mouse assessed as decrease in LPS-induced inflammatory infiltration in lung tissue at 20 mg/kg pretreated for 30 mins followed by LPS stimulation for 6 hrs by H and E staining based analysis; assay type: functional, organism-based; conditions: time 6.5 hrs
compound,measurement,setting,value
COc1ccc(-c2cnc(NC(=O)/C=C/c3ccccc3)s2)cc1OC,inhibition at 10 µM,[1],53%
COc1ccc(-c2csc(NC(=O)c3ccc(F)cc3)n2)cc1OC,inhibition at 10 µM,[1],51.2%
COc1ccc(-c2csc(NC(=O)c3ccc(Cl)c([N+](=O)[O-])c3)n2)cc1OC,inhibition at 10 µM,[1],64.1%
same,Activity,[2],Toxic
O=C(O)/C=C/c1ccccc1 [CINNAMIC ACID],inhibition at 10 µM,[1],26.4%
COc1ccc(-c2csc(NC(=O)c3ccc(C)cc3)n2)cc1OC,inhibition at 10 µM,[1],38.8%
COc1ccc(-c2csc(NC(=O)c3ccccc3C)n2)cc1OC,inhibition at 10 µM,[1],36.8%
O=C(/C=C/c1ccccc1)Nc1ncc(-c2cccc([N+](=O)[O-])c2)s1,inhibition at 10 µM,[1],36.5%
CCOc1ccc(-c2cnc(NC(=O)/C=C/c3ccccc3)s2)cc1,inhibition at 10 µM,[1],37.6%
O=C(/C=C/c1ccccc1)Nc1ncc(-c2ccc(C3CCCCC3)cc2)s1,inhibition at 10 µM,[1],51.9%
COc1ccc(-c2csc(NC(=O)c3ccc(F)cc3Cl)n2)cc1OC,inhibition at 10 µM,[1],23.3%
COc1cc(-c2cnc(NC(=O)/C=C/c3ccccc3)s2)cc(OC)c1OC,inhibition at 10 µM,[1],72.7%
same,Activity,[2],Non-toxic
C[C@@H]1C[C@H]2[C@@H]3CCC4=CC(=O)C=C[C@]4(C)[C@@]3(F)[C@@H](O)C[C@]2(C)[C@@]1(O)C(=O)CO,Activity,[3],Active
same,Activity,[4],Active
same,Activity,[5],Active
same,Activity,[6],Active
same,Activity,[7],Active
same,Activity,[8],Active
same,Activity,[9],Active
COc1ccc(-c2csc(NC(=O)c3cccc(Br)c3)n2)cc1OC,inhibition at 10 µM,[1],19.8%
COc1ccc(-c2csc(NC(=O)c3cccc(F)c3)n2)cc1OC,inhibition at 10 µM,[1],19.5%
O=C(/C=C/c1ccccc1)Nc1ncc(-c2ccc(Br)cc2)s1,inhibition at 10 µM,[1],21.6%
O=C(/C=C/c1ccccc1)Nc1nc2ccccc2s1,Activity,[10],Active
same,inhibition at 10 µM,[1],79.6%
same,Activity,[2],Non-toxic
same,Activity,[3],Active
same,Activity,[4],Active
same,IC50,[11],1060 nM
same,inhibition,"[11]; dose 1.25-10 µM, time 24.5 hrs",Dose-dependent-effect
same,Activity,[5],Active
same,Activity,[6],Active
same,Activity,[12],Active
same,Activity,[13],Active
same,Activity,[14],Active
same,Activity,[7],Active
same,Activity,[15],Active
same,Activity,[8],Active
same,Activity,[9],Active
